The values that follow come from the supplement of paper PMC3974653.

SMILES strings stand for the structures. Structures can show the parent of a compound that is named as a salt.

This test relates to MTT (mouse pheochromocytoma). Put plainly: IC50 of cell viability (ATP content). As to conditions: (24 or 48 h). The procedure, abridged: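 MTT mouse pheochromocytoma cells, cultured overnight at 37°C, 5% CO2 in DMEM with 5% FBS and 1% horse serum, were exposed in white 1536-well plates to library compounds in DMSO at final 0.5 nM to 46 µM (8 concentrations) for 24 or 48 hrs. CellTiter-Glo luminescence was normalised to positive-control (100%) and DMSO (0%) wells. A four-parameter logistic fit gave the IC50.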
On to `O=P(O)(O)OP(=O)(O)O` [Phosphotex], for which the “IC50 of cell viability” value is greater than 46 µM. The result for `CCOP(=S)(OCC)O/N=C(\C#N)c1ccccc1` [Phoxim] reads greater than 46 µM; that for `CC1=C(C/C=C(\C)CCCC(C)CCCC(C)CCCC(C)C)C(=O)c2ccccc2C1=O` (configuration not stated) [Phytonadione], greater than 46 µM; that for `NNc1nnc(Cc2ccncc2)c2ccccc12` [Picodralazine], greater than 46 µM.

Consider `NCc1cccnc1` [Picolamina], for which the “IC50 of cell viability” value was greater than 46 µM. The figure for `OCc1ccccn1` [Piconol] is greater than 46 µM; for `O=S(=O)([O-])Oc1ccc(C(c2ccc(OS(=O)(=O)[O-])cc2)c2ccccn2)cc1` [Picosulfate sodium] it is greater than 46 µM. Take `C=C(C)[C@@H]1C2OC(=O)C1[C@]1(O)C[C@H]3O[C@]34C(=O)O[C@H]2[C@]14C.CC(C)(O)[C@@H]1C2OC(=O)[C@@H]1[C@]1(O)C[C@H]3O[C@]34C(=O)O[C@H]2[C@]14C` [Picrotoxin]: the “IC50 of cell viability” value is greater than 46 µM. For `O=C1CC[C@@H](C(=O)N2CSC[C@H]2C(=O)O)N1` [Pidotimod], the “IC50 of cell viability” value was greater than 46 µM. For `C/C(=N\O)c1ccc(OCC(=O)N2CCCCC2)cc1` [Pifoxime], the “IC50 of cell viability” value was greater than 46 µM.

As for `O=C1CCCCC1CN1CCCCC1` (configuration not stated) [Pimeclone], the “IC50 of cell viability” value is greater than 46 µM.

Take `CC(=O)O[C@H]1C[C@@H]2CC[C@@H]3[C@H](CC[C@]4(C)[C@H](OC(C)=O)[C@@H](N5CC[N+](C)(C)CC5)C[C@@H]34)[C@@]2(C)C[C@@H]1N1CC[N+](C)(C)CC1` [Pipecuronium]: the “IC50 of cell viability” value is greater than 46 µM. As to `CCN1\C=C(\C(O)=O)C(=O)C2=C1N=C(N=C2)N3CCNCC3` [Pipemidic acid], the “IC50 of cell viability” value was greater than 46 µM.

Take `[Na+].CCN1CCN(C(=O)N[C@H](C(=O)N[C@H]2[C@@H]3SC(C)(C)[C@@H]([N@]3C2=O)C([O-])=O)C4=CC=CC=C4)C(=O)C1=O` [Piperacillin sodium salt]: the “IC50 of cell viability” value is greater than 46 µM. For `C1CNCCN1` [Piperazine], the “IC50 of cell viability” value was greater than 46 µM. Consider `CCN1CCC[C@H](OC(=O)C(c2ccccc2)c2ccccc2)C1` [Piperidolate hydrochloride], for which the “IC50 of cell viability” value was greater than 46 µM. `CCCCOCCOCCOCc1cc2c(cc1CCC)OCO2` [Piperonyl butoxide]: the “IC50 of cell viability” value is greater than 46 µM. Consider `CN1CCN(c2cc3c(nn2)Oc2ccccc2N3C)CC1` [Pipofezine], for which the “IC50 of cell viability” value was greater than 46 µM. The result for `CCCCCCCCCCCCCCCC(=O)OCCC1CCN(CCCN2c3ccccc3Sc3ccc([S+](=O)([O-])N(C)C)cc32)CC1` [Pipothiazine palmitate] reads greater than 46 µM.

On to `NC(=O)CN1CCCC1=O` [Piracetam], for which the “IC50 of cell viability” value is greater than 46 µM. In the case of `N[S+](=O)([O-])c1cc(C(=O)O)cc(N2CCCC2)c1Oc1ccccc1` [Piretanide], the “IC50 of cell viability” value was greater than 46 µM. For the compound `CC/1=C/N(C(=O)/C=C1)C2=CC=CC=C2` [Pirfenidone], the “IC50 of cell viability” value is greater than 46 µM.

For the compound `CCN1\C=C(\C(O)=O)C(=O)C2=C1N=C(N=C2)N3CCCC3` [Piromidic acid], the “IC50 of cell viability” value was greater than 46 µM. The result for `CN1\C(=C(\O)C2=C(C=CC=C2)[S+]1([O-])=O)C(=O)NC3=CC=CC=N3` [Piroxicam] reads greater than 46 µM; that for `O=C(O)CC(O)CC(O)/C=C/c1c(C2CC2)nc2ccccc2c1-c1ccc(F)cc1` (configuration not stated) [Pitavastatin], greater than 46 µM; that for `COC(=O)c1ccccc1C(=O)c1ccc(OCCN2CCCCC2)cc1` [Pitofenona], greater than 46 µM. As to `CC(C)(C)C(=O)NCCCC(=O)O` [Pivagabine], the “IC50 of cell viability” value was greater than 46 µM. The figure for `CC(C)(C)C(=O)OCOC(=O)[C@@H]1[N@]2[C@@H](SC1(C)C)[C@H](NC(=O)[C@@H](N)C3=CC=CC=C3)C2=O` [Pivampicillin] is greater than 46 µM; for `CC(C)(C)C(=O)OCOC(=O)[C@@H]1[N@]2[C@@H](SC1(C)C)[C@H](\N=C/N3CCCCCC3)C2=O` [Pivmecillinam hydrochloride] it is greater than 46 µM; for `CC(C)(C)C(=O)OCOC(=O)C1N2C(=O)CC2[S+](=O)([O-])C1(C)C` (configuration not stated) [Pivoxil Sulbactam] it is greater than 46 µM.

In the case of `C=C[C@]1(C)C[C@@H](OC(=O)CO)[C@]2(C)C(C)CC[C@]3(CCC(=O)[C@H]32)[C@@H](C)[C@@H]1O` (some centres not stated) [Pleuromutilin], the “IC50 of cell viability” value was greater than 46 µM. The figure for `NCCCC(N)C(=O)O` [Poly-L-ornithine hydrochloride] is greater than 46 µM. For the compound `CCC(C)CCCCC(=O)N[C@@H](CC[NH3+])C(=O)N[C@H](C(=O)N[C@@H](CC[NH3+])C(=O)N[C@H]1CCNC(=O)C([C@@H](C)O)NC(=O)[C@@H](CCN)NC(=O)[C@H](CCN)NC(=O)[C@H](CC(C)C)NC(=O)[C@@H](CC(C)C)NC(=O)[C@H](CCN)NC1=O)[C@@H](C)O` (some centres not stated) [Polymyxin E1], the “IC50 of cell viability” value was greater than 46 µM. `CN1C(CSCC(F)(F)F)Nc2cc(Cl)c([S+](N)(=O)[O-])cc2[S+]1(=O)[O-]` (configuration not stated) [Polythiazide]: the “IC50 of cell viability” value is greater than 46 µM.

With `CC[C@@H]([C@H](C)O)N1\N=C/N(C1=O)C2=CC=C(C=C2)N3CCN(CC3)C4=CC=C(OCC5CO[C@@](C5)(C[N]6C=NC=N6)C7=C(F)C=C(F)C=C7)C=C4` (some centres not stated) [Posaconazole], the “IC50 of cell viability” value was greater than 46 µM. For the compound `O=S(=O)([O-])C(F)(F)C(F)(F)C(F)(F)C(F)(F)F` [Potassium nonafluoro-1-butanesulfonate], the “IC50 of cell viability” value was greater than 46 µM. On to `C#CC[C@H](Cc1cnc2nc(N)nc(N)c2n1)c1ccc(C(=O)NC(CCC(=O)O)C(=O)O)cc1` (some centres not stated) [Pralatrexate], for which the “IC50 of cell viability” value is greater than 46 µM.

Take `C[n+]1ccccc1/C=N\O` [Pralidoxime chloride]: the “IC50 of cell viability” value is greater than 46 µM. The figure for `CCCCOc1ccc(OCCCN2CCOCC2)cc1` [Pramoxine hydrochloride] is greater than 46 µM; for `O=C(N[C@@H]1N=C(c2ccccc2F)c2cccc3c2N(CC3)C1=O)c1cc2ccccc2[nH]1` [Pranazepide] it is greater than 46 µM; for `C[C@]12CC[C@H]3[C@@H](C\C=C/4C[C@@H](O)CC[C@]34C)[C@@H]1CCC2=O` [Prasterona] it is greater than 46 µM. Take `CC(=O)Oc1cc2c(s1)CCN(C(C(=O)C1CC1)c1ccccc1F)C2` (configuration not stated) [Prasugrel Hydrochloride]: the “IC50 of cell viability” value was greater than 46 µM. On to `COc1ccc(C(=O)c2c(C)n(CCN3CCOCC3)c3ccccc23)cc1` [Pravadoline maleate], for which the “IC50 of cell viability” value is greater than 46 µM. On to `O=C(C1CCCCC1)N1CC(=O)N2CCc3ccccc3[C@@H]2C1` [Praziquantel], for which the “IC50 of cell viability” value is greater than 46 µM. For `COc1cc2nc(N3CCN(C(=O)c4ccco4)CC3)nc(N)c2cc1OC` [Prazosin], the “IC50 of cell viability” value was greater than 46 µM. Turning to `CCOC(=O)O[C@@]1(CC[C@@H]2[C@@H]3CC\C4=C\C(=O)\C=C/[C@@]4(C)[C@H]3[C@H](O)C[C@@]12C)C(=O)COC(=O)CC` [Prednicarbate], the “IC50 of cell viability” value is greater than 46 µM. As to `CC12C=CC(=O)C=C1CCC1C2C(O)CC2(C)C1CCC2(O)C(=O)COC(=O)CCC(=O)O` (configuration not stated) [Prednisolone 21-hemisuccinate], the “IC50 of cell viability” value was greater than 46 µM.
